# Test results: US6835382B2, “Ii peptide therapeutics to enhance antigen presentation” (University of Massachusetts, priority 1996, dated 2004)
# Positions of bridges follow the written chain, without caps; N, C: chain ends. Non-standard residues stand in square brackets, D forms with d. No end group written: not given here. hArg = N=C(N)NCCCC[C@H](N)C(=O)O; Cit = NC(=O)NCCC[C@H](N)C(=O)O
# What was measured:
# Type in all cases: cell-based
# [1] = biological target: T1, murine E^d MHC class II allele (Mus musculus, UniProt P01904+P01915); assay: antigenic peptide prepulse assay, E^d allele (fixed APC prepulsed with HEL106-116); parameters: The A20 and CH27 B cell lymphoma lines express H-2^d and H-2^k alleles, respectively; endogenous in cells; host or cells: A20 B cell lymphoma (mitomycin C-treated or paraformaldehyde-fixed); conditions: AE peptide 64 μM, prepulse 24 μM antigenic peptide; for Activity in antigenic peptide prepulse assay, E^d (baseline = 1.00): Table 25
# T1 sequence (P01904 26-255): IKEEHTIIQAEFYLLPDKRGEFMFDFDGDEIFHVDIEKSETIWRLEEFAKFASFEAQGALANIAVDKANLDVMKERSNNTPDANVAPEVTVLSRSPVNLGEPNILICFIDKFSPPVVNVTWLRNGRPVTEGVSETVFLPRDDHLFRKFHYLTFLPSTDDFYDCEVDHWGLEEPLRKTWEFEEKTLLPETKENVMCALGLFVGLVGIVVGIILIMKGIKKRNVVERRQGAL
# T1 sequence (P01915 27-264 limits assumed): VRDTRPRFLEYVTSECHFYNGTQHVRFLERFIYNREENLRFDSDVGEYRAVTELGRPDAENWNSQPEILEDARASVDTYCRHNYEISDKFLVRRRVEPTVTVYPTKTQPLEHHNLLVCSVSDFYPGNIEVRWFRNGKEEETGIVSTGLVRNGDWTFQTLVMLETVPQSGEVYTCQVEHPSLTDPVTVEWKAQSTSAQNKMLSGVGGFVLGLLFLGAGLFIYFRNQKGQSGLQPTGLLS
# Experimental: In a second type of assay, the “peptide prepulse assay”, the antigenic peptide is incubated with paraformaldehyde-fixed APC for 6 h. The APC are washed and incubated for 24 h with the AE101 series homolog and the T cell hybridoma specific for the antigenic peptide. After that incubation, an aliquot of the culture supernatant is transferred to a second culture to measure the relative degree of T hybridoma stimulation, as reflected in the effect of released interleukins on the growth of an interleukin-dependent, indicator cell line, as described above.
# The two above described assays measure different aspects of the molecular mechanism of the AE101 series of peptides. In the “simultaneous assay”, AE101 series peptides are thought to induce the release of endogenously bound peptides and to permit the binding of the second, specific antigenic peptide which is relatively abundant in the culture fluid. The AE101 series peptides enhance antigenic peptide-specific T cell responses in simultaneous assays. In the “peptide prepulse” assay, the specific antigenic peptide becomes bound to MHC class II molecules on the surface of the fixed APC during the 6 h prepulse incubation. The effect of the AE101 series homologs is then thought to release that antigenic peptide, resulting in an apparent suppression of the immune response.
# The AE101 series peptides are thought to contact the MHC class II molecules at a discrete site outside the antigenic peptide-binding groove. AE101 peptide binding to this “Ii-KEY” site is thought to induce a conformational change in the MHC class II molecules accelerating the dissociation of previously bound antigenic peptide. […] The AE101 series peptides thus inhibit antigenic peptide-specific T cell responses in the “peptide prepulse” assays.
# Antigenic peptide-specific T cell activation was measured by the following procedure. Mitomycin C-treated A20 cells (A^dE^d) or CH27 cells APC (A^kE^k) were generated by incubating 5×10^6 cells/mL for 20 min at 37° C. with 0.025 mg/mL of mitomycin C (Sigma) in Dulbecco's Modified Eaglel's Medium (DMEM)/10 mM N-2(hydroxyethylpiperazine-N″[2-ethanesulfonic acid] (HEPES), followed by two washes with four volumes of DMEM-5% fetal calf serum (FCS), 10 mM HEPES. Fixed APC were generated by treating 1×10^6 cells/mL for 5 min with 0.5% paraformaldehyde in PBS (pH 7.2), followed by two washes with four volumes of DMEM-10% FCS, 10 mM HEPES. T cell hybridomas were irradiated 2200 rads before each assay.
# The “peptide prepulse assay” was carried out under essentially the same conditions as described for the “simultaneous assay” with the following modifications. Fixed APC were first incubated for 6 h at 1×10^6 cells/mL in complete DMEM-5% FCS in 24-well microculture plates (1 mL/well) with antigenic peptide, followed by four washes with 10 volumes of DMEM-5% FCS. The cells were then exposed to varying concentrations of AE101 series peptide (64 μM, 16 μM, 4 μM, and 1 μM) for 24 h in the presence of the T cell hybridoma specific to the antigenic peptide. Interleukin release from these cultures was measured by proliferation of HT-2 cells to interleukins in supernatants transferred from the primary culture. Generally, a single dose of 64 μM of each AE101 series peptide was used. The baseline T cell response was measured by culturing T hybridoma cells with the antigenic peptide-prepulsed APC in the absence of AE101 series peptides.
# […] […] Paraformaldehyde-treated APC (fixed APC) expressing MHC class II molecules were incubated with antigenic peptide for 6 h (HEL106-116 for E^d and PGCC81-104 for E^k). After this incubation, the prepulsed APC were washed and cultured with T hybridoma cells and AE101 series peptides. […] The AE101 series peptide concentrations were 64 μM for E^d and 16 μM for E^k. The dilutions of supernatant taken into the HT-2 cell assay were 1:4 for Ed and 1:2 for E^k.
# [2] = test system: murine E^k MHC class II allele; assay: AE101 series peptide prepulse assay, E^k allele; conditions: Table 35; AE101 series peptide prepulse 64 μM; antigenic peptide 0.4 μM; supernatant dilution 1:2
# Experimental: (§1) Table 35: Activities of multiple substitution analogs of AE235, targeting the E^k and E^d allele, in an AE101 series peptide prepulse assay. In this assay the concentration of AE101 series peptides used during the prepulse was 64 μM. The concentrations of antigenic peptides were 0.3 μM for Ed and 0.4 μM for E^k. The supernatant dilutions taken into the HT-2 cell assay was 1:4 for E and 1:2 for E^k. The AE381 peptide is a head-to-tail cyclization: the amino terminal amino group is coupled through an amide linkage to the carboxyl terminal group. The AE 382 peptide is a side-to-tail cyclization: the epsilon amino group of Lys^4 is coupled through an amide linkage to the carboxyl terminal group.
# (§2) AE101 series peptide prepulse assays were carried out in the E^d and E^k systems as described for simultaneous competition assays with the following modifications. Fixed APC were first incubated for 6 h at 1×10^6DMEM-5% FCS with 64 μM of each AE101 series peptide or with PBS. The APC were then washed four times with ten volumes of DMEM-5% FCS, and were cocultured with T hybridoma cells and the indicated submaximal doses of antigenic peptides used in the simultaneous competition assays. The baseline T cell response was measured by culturing T hybridoma cells with antigenic peptide and PBS-pretreated APC.
# [3] = biological target: T1, murine E^d MHC class II allele; assay: AE101 series peptide prepulse assay, E^d allele; conditions: for T cell response relative to baseline with PBS-pretreated APC (NONE = 1.0), E^d: Table 35, AE101 series peptide prepulse 64 μM, antigenic peptide 0.3 μM, supernatant dilution 1:4
# Experimental: as §1, §2
substance,measurement,setting,value
Ac-A[Cit]NKNPK-NH2 [AE351],"Activity in antigenic peptide prepulse assay, E^d (baseline = 1.00)",[1]; supernatant 1:4,0.42
Ac-FK HArg MYP Cit-NH2 [AE371],"Activity in antigenic peptide prepulse assay, E^d (baseline = 1.0)","[1]; Table 26, supernatant 1:2",0.90
Ac-LK HArg KYPK-NH2 [AE363],"Activity in antigenic peptide prepulse assay, E^d (baseline = 1.0)","[1]; Table 26, supernatant 1:2",0.60
Ac-LKMKYPK-NH2 [AE362],"Activity in antigenic peptide prepulse assay, E^d (baseline = 1.0)","[1]; Table 26, supernatant 1:2",0.76
Ac-LR HArg KYP Cit-NH2 [AE366],"T cell response relative to baseline with PBS-pretreated APC (NONE = 1.0), E^k",[2],3.5
same,"T cell response relative to baseline with PBS-pretreated APC (NONE = 1.0), E^d",[3],7.5
same,"Activity in antigenic peptide prepulse assay, E^d (baseline = 1.0)","[1]; Table 26, supernatant 1:2",0.44
Ac-LR HArg MYPK-NH2 [AE365],"Activity in antigenic peptide prepulse assay, E^d (baseline = 1.0)","[1]; Table 26, supernatant 1:2",0.70
Ac-LR Orn K HArg PK-NH2 [AE340],"Activity in antigenic peptide prepulse assay, E^d (baseline = 1.00)",[1]; supernatant 1:4,0.10
Ac-LRLKYPN-NH2 [AE368],"Activity in antigenic peptide prepulse assay, E^d (baseline = 1.0)","[1]; Table 26, supernatant 1:2",0.55
Ac-LRMKLPK (lactam 4-C) [AE382],"T cell response relative to baseline with PBS-pretreated APC (NONE = 1.0), E^k",[2],3.2
same,"T cell response relative to baseline with PBS-pretreated APC (NONE = 1.0), E^d",[3],1.7
same,"Activity in antigenic peptide prepulse assay, E^d (baseline = 1.0)","[1]; Table 28, supernatant 1:4",0.52
Ac-LRMKNPF-NH2 [AE350],"Activity in antigenic peptide prepulse assay, E^d (baseline = 1.00)",[1]; supernatant 1:4,0.82
Ac-LRMKYPN-NH2 [AE370],"Activity in antigenic peptide prepulse assay, E^d (baseline = 1.0)","[1]; Table 26, supernatant 1:2",0.74
Ac-LRMKYP[Cit]-NH2 [AE364],"Activity in antigenic peptide prepulse assay, E^d (baseline = 1.0)","[1]; Table 26, supernatant 1:2",0.34
Ac-LRMMYP[Cit]-NH2 [AE367],"Activity in antigenic peptide prepulse assay, E^d (baseline = 1.0)","[1]; Table 26, supernatant 1:2",1.10
Ac-L[hArg]LKYPK-NH2 [AE361],"Activity in antigenic peptide prepulse assay, E^d (baseline = 1.0)","[1]; Table 26, supernatant 1:2",0.83
Ac-L[hArg]MKYPK-NH2 [AE360],"Activity in antigenic peptide prepulse assay, E^d (baseline = 1.0)","[1]; Table 26, supernatant 1:2",0.91
"cyclic LRMKLPK (bridge (positions not given here); also: cyclic, ring type not given here) [AE381, “head-to-tail” cyclization from the amino-terminus to the carboxyl-terminus of AE114]","T cell response relative to baseline with PBS-pretreated APC (NONE = 1.0), E^k",[2],0.3
same,"T cell response relative to baseline with PBS-pretreated APC (NONE = 1.0), E^d",[3],1.0
same,"activity in the AE101 series peptide prepulse assay, in words","[3]; text on Table 35, AE peptide prepulse 64 μM, E^d and E^k systems",potent suppressive activity
same,"Activity in antigenic peptide prepulse assay, E^d (baseline = 1.0)","[1]; Table 28, supernatant 1:4",0.19
